According to US20250269043A1, “TARGETED BIFUNCTIONAL DEGRADERS” (YALE UNIVERSITY, priority 2019, published 2025):
Square brackets hold non-standard residues; d marks the D form. Peptide text beside a SMILES is read from it. * marks the point of attachment. Sta = CC(C)C[C@H](N)[C@@H](O)CC(=O)O; Isovaleryl = CC(C)CC(=O)*

Columns and labels:
[1] = tested on: α-DNP antibody; test: In vivo depletion of α-DNP antibody from serum in mice (ELISA); conditions: i.p. injection; FIG. 79A
Method: FIG. 94 illustrates that serum levels of α-DNP antibody decrease more rapidly following repeated treatment with DNP-GN3. Serum antibody levels were measured using an ELISA assay. Each experimental group contained three mice. Statistical differences in experiments involving in vivo depletion of α-DNP antibody were assessed by repeated measures two-way ANOVA with Tukey's tests for post-hoc comparison of simple effects between each of the treatment groups and PBS.
Single doses of DNP-GN3 were also found to be efficacious at mediating α-DNP antibody depletion, albeit less effectively than daily dosing (FIG. 96). […] Therefore, it was concluded that DNP-GN3 is able to mediate the depletion of a monoclonal antibody from serum, and functions across a wide range of target protein concentrations and dosing regimens.
DNP-GN3 was also found to be efficacious in depleting polyclonal α-DNP antibody from serum collected from mice immunized with DNP-keyhole limpet haemocyanin (KLH) (FIG. 97). […] Thus, the small molecule DNP-GN3 is not restricted in function to only monoclonal mouse antibodies, but is also effective at removing polyclonal α-DNP antibodies from circulation in mice.

[2] = tested on: HepG2 cells; test: Effect of protease inhibitors on degradation of endocytosed α-DNP antibody in HepG2 cells (50 kDa/25 kDa band ratio); conditions: for inhibition of α-DNP antibody degradation (triplicate): 12 hours, each concentration in triplicate, ALLN 100 and 10 μM, FIG. 117; for inhibition of α-DNP antibody degradation (initial screening): leupeptin 20 and 80 μM, E64 50 and 10 μM, antipain 50 and 100 μM, aprotinin 400 or 800 nM, PMSF 100 or 500 μM, AEBSF 10 μM, ALLN 10 μM, FIG. 116
Excerpt: The ratiometric comparison of band intensity at 50 kDa divided by the intensity of the 25 kDa was used as a measure of α-DNP antibody degradation. As endocytosed α-DNP antibody is degraded in cells, this ratio decreases. […] Each ratiometric measurement is produced using only the protein fragments present in the cell lysate.
Protease inhibitors which inhibit α-DNP antibody degradation are expected to cause an accumulation of fluorescent intensity at 50 kDa and a decrease in fluorescent intensity at 25 kDa.
Next it was studied whether the inhibition of α-DNP antibody degradation by protease inhibitors was reproducible. Each protease inhibitor concentration was tested in triplicate in HepG2 cells (FIG. 117).
Pepstatin at a concentration 15 μM was included as a negative control.

[3] = target: T1, human MIF (Homo sapiens, UniProt P14174); test: Depletion of human MIF from cell culture supernatant (sandwich ELISA); format: cell-based; conditions: for depletion of human MIF from cell culture supernatant / depletion of MIF from cell culture supernatant, optimized ASGPR-binding motifs: human MIF 100 nM; for depletion of human MIF from cell culture supernatant: FIG. 128A; for depletion of MIF from cell culture supernatant, optimized ASGPR-binding motifs: MIF-AF2 at 40 nM, 200 nM and 1 μM
T1 sequence (P14174 2-115 limits assumed): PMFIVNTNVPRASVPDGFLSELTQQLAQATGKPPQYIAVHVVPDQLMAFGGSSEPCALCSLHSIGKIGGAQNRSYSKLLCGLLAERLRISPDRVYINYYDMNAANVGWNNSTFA
Method: The ability of bifunctional MIF-binding molecules to mediate the depletion of human MIF from cell culture was investigated. In these assays, human MIF was present at a concentration of 100 nM, and a sandwich ELISA assay was utilized to measure the concentration of human MIF remaining in the cell culture supernatant. The closely related bifunctional molecules MIF-GN3, MIF-PEG2-GN3, and MIF-PEG4-GN3 were used, as well as the structurally dissimilar molecule MIF-NVS-PEG3-GN3. […] Based on the ease of its synthesis and its efficacy in this experiment, MIF-GN3 was utilized for further studies. It was next investigated whether the MIF inhibitor 3w mediates MIF depletion from cell culture supernatant. […] When cells were treated with 3w, no depletion of exogenous MIF protein was observed after 24 hours (FIG. 128B).
Bifunctional molecules containing optimized ASGPR-binding motifs are also capable of mediating MIF depletion from cell culture supernatant (FIG. 129). The MIF-binding molecule MIF-AF1, which contains only a single ASGPR-binding sugar, was not effective at mediating depletion of MIF from supernatant at any concentration tested. It is hypothesized that this is due to the compound's low predicted affinity for ASGPR (μM range). […] At a concentration of either 200 nM or 1 μM, MIF-AF2 mediated nearly 100%/o depletion of MLF from the cell culture supernatant after 48 hours. […] In contrast to these molecules, which utilize optimized synthetic ASGPR ligands, the GalNAc-based molecule MIF-GN3 mediated only 67.0% and 56.0% removal of MIF from supernatant after 48 hours at concentrations of 1 μM and 200 nM, respectively. […] At a concentration of 40 nM (4.0 pmol of molecule), MIF-AF3 mediates the removal of 83.2% of MIF present in the cell culture supernatant, or 8.32 pmol of human MIF protein. Therefore, it was concluded that under the conditions of this experiment, MIF-AF3 mediates the depletion of 2.08 molar equivalents of MIF protein.

[4] = tested on: HepG2 cells; test: DNP-GN3-mediated endocytosis of fluorescently labeled α-DNP antibody by adherent HepG2 cells; format: cell-based, human; conditions: sodium azide and 2-deoxyglucose as combined treatment; FIG. 89
Method: It was next explored whether DNP-GN3 mediates the endocytosis of fluorescently labeled α-DNP antibody.
To explore the cellular mechanism of antibody uptake, cells were treated with chemical inhibitors of several endocytic pathways (FIG. 89).

[5] = tested on: HepG2 cells; test: MIF-GN3-mediated endocytosis of Alexa 488-labeled human MIF by HepG2 cells; conditions: MIF 100 nM, MIF-GN3 200 nM; FIG. 132
Method: Human MIF protein was fluorescently labeled with Alexa 488 NHS ester, then incubated with HepG2 cells in the presence of varying levels of MIF-GN3.
The ability of MIF-GN3 to mediate MIF endocytosis over a wide range of target protein concentrations was assessed.
Next, inhibitors of various endocytic pathways were utilized to determine if MIF-GN3 mediates MIF endocytosis in a manner consistent with ASGPR (FIG. 132).

| Compound | inhibition of α-DNP antibody degradation (triplicate) [2] | inhibition of α-DNP antibody degradation (initial screening) [2] | effect of endocytic pathway inhibitors on MIF-GN3-mediated MIF endocytosis [5] | other results |
| --- | --- | --- | --- | --- |
| O=C(CCOCC(COCCC(=O)NCCOCCOCCO)(COCCC(=O)NCCOCCOCCO)NC(=O)CNC(=O)COCCOCCOCCNc1ccc([N+](=O)[O-])cc1[N+](=O)[O-])NCCOCCOCCO [DNP-(OH)3] |  |  |  | degradation of injected anti-DNP IgG antibodies in mouse serum [1]: did not show such effect |
| CC(C)CC(=O)N[C@H](C(=O)N[C@H](C(=O)N[C@@H](CC(C)C)[C@@H](O)CC(=O)N[C@@H](C)C(=O)N[C@@H](CC(C)C)[C@@H](O)CC(=O)O)C(C)C)C(C)C [Pepstatin] (Isovaleryl-VV[Sta]A[Sta]-OH) | did not significantly inhibit | not effective |  |  |
| Cl.NCCc1ccc(S(=O)(=O)F)cc1 [AEBSF, 4-(2-aminoethyl)benzeneulfonyl fluoride hydrochloride] | did not significantly inhibit | not effective |  | toxicity to cells ([2]; HepG2 cells, pepstatin 5 μM after 24 hours, AEBSF 100 μM, ALLN 100 μM by 24 hours): toxic |
| CC(=O)NC1C(OCCOCCOCCNC(=O)CCOCC(COCCC(=O)NCCOCCOCCOC2OC(CO)C(O)C(O)C2NC(C)=O)(COCCC(=O)NCCOCCOCCOC2OC(CO)C(O)C(O)C2NC(C)=O)NC(=O)CNC(=O)COCCOCCOCCn2cc(COCCOCCOc3ccc(N4Cc5ccc(O)cc5OC4=O)cc3)nn2)OC(CO)C(O)C1O (centres unmarked) [MIF-NVS-PEG3-GN3] |  |  |  | depletion of human MIF from cell culture supernatant ([3]; 24 hours): effective |
| O=C(CCCOc1ccc2nc(-c3cn(-c4ccc(O)c(F)c4)nn3)ccc2c1)NCCOCCC(=O)NCCOCCOCCOCCOC[C@]12CO[C@H](O1)[C@H](NC(=O)C(F)(F)F)[C@@H](O)[C@H]2O [MIF-AF1] |  |  |  | depletion of MIF from cell culture supernatant, optimized ASGPR-binding motifs ([3]; FIG. 129): not effective |
| O=S(=O)(F)Cc1ccccc1 [PMSF, Phenylmethylsulfonyl fluoride] | did not significantly inhibit | not effective |  |  |
| CO/C1=C\C(C)=C\[C@@H](C)[C@@H](O)[C@@H](C)C/C(C)=C/C=C/[C@H](OC)[C@@H]([C@@H](C)[C@@H](O)[C@H](C)[C@@]2(O)C[C@@H](O)[C@H](C)[C@@H](C(C)C)O2)OC1=O [bafilomycin, Bafilomycin] |  |  | near background levels | effect of endocytic pathway inhibitors on intracellular fluorescence (DNP-GN3-mediated uptake) [4]: significantly decreased |
| OC[C@H]1O[C@@](CO)(O[C@H]2O[C@H](CO)[C@@H](O)[C@H](O)[C@H]2O)[C@@H](O)[C@@H]1O [sucrose] |  |  | near background levels | effect of endocytic pathway inhibitors on intracellular fluorescence (DNP-GN3-mediated uptake) [4]: significantly decreased |
| O=C(CCOCC(COCCC(=O)NCCOCCOCCOCCOC[C@]12CO[C@H](O1)[C@H](NC(=O)C(F)(F)F)[C@@H](O)[C@H]2O)(COCCC(=O)NCCOCCOCCOCCOC[C@]12CO[C@H](O1)[C@H](NC(=O)C(F)(F)F)[C@@H](O)[C@H]2O)NC(=O)CCCOc1ccc2nc(-c3cn(-c4ccc(O)c(F)c4)nn3)ccc2c1)NCCOCCOCCOCCOC[C@]12CO[C@H](O1)[C@H](NC(=O)C(F)(F)F)[C@@H](O)[C@H]2O [MIF-AF3] |  |  |  | amount of human MIF protein removed ([3]; 40 nM (4.0 pmol of molecule)): 8.32 pmol |
| CC(=O)NC1C(OCCOCCOCCNC(=O)CCOCC(COCCC(=O)NCCOCCOCCOC2OC(CO)C(O)C(O)C2NC(C)=O)(COCCC(=O)NCCOCCOCCOC2OC(CO)C(O)C(O)C2NC(C)=O)NC(=O)CNC(=O)COCCOCCNC(=O)CCCOc2ccc3nc(-c4cn(-c5ccc(O)c(F)c5)nn4)ccc3c2)OC(CO)C(O)C1O (centres unmarked) [MIF-PEG2-GN3] |  |  |  | depletion of exogenous MIF protein from cell culture supernatant ([3]; 24 hours, FIG. 128B): mediated MIF depletion across a range of concentrations; depletion of human MIF from cell culture supernatant ([3]; 24 hours): effective |
| CC[C@@]1([C@@H]2O[C@@H]([C@H]3O[C@@](O)(CO)[C@H](C)C[C@@H]3C)C[C@@H]2C)CC[C@H]([C@]2(C)CC[C@]3(C[C@H](O)[C@@H](C)[C@@H]([C@@H](C)[C@@H](OC)[C@H](C)C(=O)O)O3)O2)O1 [monensin, Monensin] |  |  | near background levels | effect of endocytic pathway inhibitors on intracellular fluorescence (DNP-GN3-mediated uptake) [4]: significantly decreased |
| CCN(CC)CCCC(C)Nc1ccnc2cc(Cl)ccc12 (centres unmarked) [chloroquine, Chloroquine] |  |  | near background levels | effect of endocytic pathway inhibitors on intracellular fluorescence (DNP-GN3-mediated uptake) [4]: significantly decreased |
| CC(C)C[C@H](NC(=O)[C@@H](O)[C@H](N)Cc1ccccc1)C(=O)O [Bestatin] | did not significantly inhibit | not effective |  |  |
| CCN(c1nc(N)c(C(=O)N=C(N)N)nc1Cl)C(C)C [EIPA, 5-(N-Ethyl-N-isopropyl)amiloride] |  |  | significantly inhibited uptake | effect of endocytic pathway inhibitors on intracellular fluorescence (DNP-GN3-mediated uptake) [4]: did not significantly decrease |
| CC(=O)NC1C(OCCOCCOCCNC(=O)CCOCC(COCCC(=O)NCCOCCOCCOC2OC(CO)C(O)C(O)C2NC(C)=O)(COCCC(=O)NCCOCCOCCOC2OC(CO)C(O)C(O)C2NC(C)=O)NC(=O)CNC(=O)COCCOCCOCCOCCNC(=O)CCCOc2ccc3nc(-c4cn(-c5ccc(O)c(F)c5)nn4)ccc3c2)OC(CO)C(O)C1O (centres unmarked) [MIF-PEG4-GN3] |  |  |  | depletion of human MIF from cell culture supernatant ([3]; 24 hours): effective |
| O=C(CCOCC(COCCC(=O)NCCOCCOCCOCCOC[C@]12CO[C@H](O1)[C@H](NC(=O)C(F)(F)F)[C@@H](O)[C@H]2O)NC(=O)CCCOc1ccc2nc(-c3cn(-c4ccc(O)c(F)c4)nn3)ccc2c1)NCCOCCOCCOCCOC[C@]12CO[C@H](O1)[C@H](NC(=O)C(F)(F)F)[C@@H](O)[C@H]2O [MIF-AF2] |  |  |  | depletion of MIF from the cell culture supernatant ([3]; 200 nM or 1 μM, after 48 hours, FIG. 129): ~100%; depletion of MIF from cell culture supernatant, optimized ASGPR-binding motifs ([3]; FIG. 129): effective |
| Aprotinin | did not significantly inhibit | not effective |  |  |
| Cl.N [ammonium chloride, NH4Cl] |  |  | near background levels |  |
| CC(=O)N[C@@H](CC(C)C)C(=O)N[C@@H](CC(C)C)C(=O)N[C@H](C=O)CCCNC(=N)N [leupeptin, Leupeptin] | shown to inhibit | effective |  |  |
| CC(C)C[C@H](NC(=O)[C@H]1O[C@@H]1C(=O)O)C(=O)NCCCCN=C(N)N [Compound E64, E64] | shown to inhibit | effective |  |  |
